# What was measured:
# [1] = in vitro
# Description: (§1) Female Sprague Dawley rats were purchased from Charles River (QC, Canada). Rats were housed at the Laurentian University Animal Care Facility and supplied with food and water ad libitum. All experimental protocols were approved by the Health Sciences North Research Institute biosafety committee and the Laurentian University animal care committee. Blood was collected from rats under a surgical plane of anesthesia using isoflurane via cardiac puncture. Rats were then euthanized by excess isoflurane in addition to the severing of the descending aorta and cutting of the diaphragm. Blood was immediately mixed with an ethylenediaminetetraacetic acid solution (Fisher Scientific, Fairlawn NJ,0.1 M, 5 mM final concentration) and stored on ice until being centrifuged at 2,100 x G and 4 °C for 10 minutes. The top plasma layer was removed, aliquoted and stored at -80 °C.
# (§2) Dynantin samples were analyzed at a constant solvent flow rate of 0.7 mL/min at 35 °C using a binary gradient (Table 1). Solvent A consisted of a 25% solution of acetonitrile (HPLC grade Fisher Scientific) in ddH2O (0.2 μm filtered) and solvent B consisted of acetonitrile, with each solvent containing 0.1% trifluoroacetic acid (v/v, protein sequencing grade, Sigma Aldrich, Fairlawn NJ).
# (§3) MDP samples were analyzed at a constant solvent flow rate of 1.0 mL/min at 35 °C using a binary gradient (Table 2). Solvent A consisted of ddH2O (0.2 μm filtered) and solvent B consisted of methanol (MeOH) (HPLC grade, Fisher Scientific, Fairlawn NJ), with each solvent containing 0.1% formic acid (v/v, LC/MS grade, Fisher Scientific).
# [2] = Peptide with mannose lipid (ML-C14) plasma stability analysis; settings: for dynantin remaining in rat plasma / dynantin degradation in rat plasma: 37 °C, RP-HPLC, UV 210 nm; for dynantin remaining in rat plasma: relative to T-zero; for dynantin degradation in rat plasma: 48 h
# Description: as §1, §2, §3
# Peptide stability in combination with ML-C14 was investigated using a modified version of the above noted procedure. Aliquots of dynantin or MDP were first combined with varying amounts of ML-C14 (in THF, 20 μL total addition), and then thoroughly mixed before the addition of thawed rat plasma (88 μL). A control sample was also prepared by combining each peptide with THF alone (20 μL) and plasma (88 μL). Samples were incubated at 37 °C in a heating mantle for varying lengths of time before being stored at -80 °C. For HPLC analysis, samples were thawed, thoroughly mixed, diluted in MeOH to destroy liposome particles (1/10 for dynantin, 1/5 for MDP), and solids pelleted by centrifugation at 10,000 rpm and 20 °C for 5 min. The supernatants were carefully removed for analysis (8 μL injections, in duplicate). Stability is represented as the percentage of peptide remaining relative to the amount determined at T-zero.
# [3] = thawed rat plasma; settings: Female Sprague Dawley rats, 37 °C, up to 24 hours
compound,measurement,setting,value
"CC(=O)N[C@H]1C(O)O[C@H](CO)[C@@H](O)[C@@H]1O[C@H](C)C(=O)N[C@@H](C)C(=O)N[C@H](CCC(=O)O)C(N)=O (stereo partly shown) [MDP, muramyl dipeptide]",degradation of MDP in rat plasma,[1],completely degraded
same,metabolised at 12 h,"[1]; female, Sprague Dawley, rat, plasma",~60%
same,degradation of MDP in rat plasma,[2],Complete degradation
CC[C@H](C)[C@H](NC(=O)[C@H](CCCN=C(N)N)NC(=O)[C@H](CCCN=C(N)N)NC(=O)[C@H](CC(C)C)NC(=O)[C@H](Cc1ccccc1)NC(=O)CNC(=O)CNC(=O)[C@@H](C)Cc1c(C)cc(O)cc1C)C(=O)N[C@@H](CCCN=C(N)N)C(=O)N1CCC[C@H]1C(=O)N[C@@H](CCCCN)C(N)=O [dynantin],degradation of dynantin in rat plasma,"[1]; peptide alone, EDTA rat plasma, 37 °C, 12 h, RP-HPLC, UV 210 nm, relative to T-zero, three experiments",complete dynantin degradation
same,dynantin remaining in rat plasma,"[2]; with ML-C14, peptide:glycolipid 1:4, EDTA rat plasma 88 μL, 12 h, diluted 1/10 in MeOH, mean ± SEM of three experiments",21 ± 4%
same,dynantin remaining in rat plasma,"[2]; with ML-C14, peptide:glycolipid 1:4, rat plasma, 24 h",no detectable peptide
same,dynantin remaining in rat plasma,"[2]; with ML-C14, peptide:glycolipid 1:8, rat plasma, 12 h, mean ± SEM of three experiments",62 ± 4%
same,dynantin remaining in rat plasma,"[2]; with ML-C14, peptide:glycolipid 1:8, rat plasma, 24 h, mean ± SEM of three experiments",20 ± 3%
same,dynantin degradation in rat plasma,"[2]; with ML-C14, peptide:glycolipid 1:8, rat plasma",completely degraded
same,dynantin remaining in rat plasma,"[2]; with ML-C14, peptide:glycolipid 1:10, rat plasma, 12 h, mean ± SEM of three experiments",66 ± 6%
same,dynantin remaining in rat plasma,"[2]; with ML-C14, peptide:glycolipid 1:10, rat plasma, 24 h, mean ± SEM of three experiments",19 ± 4%
same,dynantin degradation in rat plasma,"[2]; with ML-C14, peptide:glycolipid 1:10, rat plasma",completely degraded
(2S)-Mdp-G-G-F-L-R-R-I-R-P-K-NH2,cleaved bond,[3],"L-R and R-R, major and R-I"
